Data published in US8557767B2, “Synthetic apolipoprotein E mimicking polypeptides and methods of use” (UAB Research Foundation, priority 2007, dated 2013).

Columns and labels:
[1] = system: C57BL/6J mice fed an atherogenic diet; test: Plasma cholesterol after one-time i.v. administration in C57BL/6J mice fed an atherogenic diet; format: in vivo
[2] = system: NZW rabbits on 1% cholesterol diet; test: Peptide administration to NZW rabbits on 1% cholesterol diet; format: in vivo, rabbit
Description: Administration of Ac-hE18A-NH2 to high fat diet administered rabbits with initial cholesterol values in the range of 600 mg/dl (1 week on 1% cholesterol diet). […] A 50% decrease in plasma cholesterol was observed after administration of the peptide.
This occurs through a lowering of plasma lipid hydroperoxide levels concomitant with a significant increase in the plasma paraoxonase (PON-1) activity. In the WHHL model, the LDL-R pathway is compromised, thus the accelerated atherogenic lipoprotein clearance is likely via the cell surface HSPG-mediated pathway, as described earlier in murine models (Garber, D. W. et al. Atherosclerosis. 163:229-237 2003).
It has been shown that very small amounts of D-4F, a class A amphipathic helical peptide, modifies several HDL properties (Navab, M., et al. Circulation 109:3215-3220 2004). […] NZW rabbits have been studied for hypercholesterolemia and relative LDL and β-VLDL production using diets containing different amounts of cholesterol (Holvoet, P. et al. Arterioscl. Thromb. Vasc. Biol. 17:2376-2382 1997). Thus, with 0.125% (w/w) cholesterol diet, LDL cholesterol levels increase; with 0.5% and higher cholesterol levels in the diet, […]-VLDL (containing apo B-100) increases dramatically. These β-VLDL particles contain increased amounts of oxidized lipids, thus enhancing the progression of atherosclerosis (Holvoet, P. et al. Arterioscl. Thromb. Vasc. Biol. 17:2376-2382 1997). To assess the effect of the peptide in this rabbit model, a 1% cholesterol diet fed NZW rabbits were utilized.
Rabbits responding to high cholesterol diet were randomized one week after the start of the diet to select rabbits with similar response (similar amounts of total plasma cholesterol). […] After 14 days from the first administration, plasma samples were taken from both the peptide-administered and saline administered (control) rabbits (n=3 in each group). The plasma samples from the peptide administered rabbits were not turbid, whereas the plasma samples from control rabbits were turbid. […] A second dose of peptide was administered 15 days after the first treatment. Since the cholesterol levels remained low two weeks after the second administration in peptide-administered rabbits, these and saline administered rabbits were sacrificed 51 days after the initiation of the diet. Aorta from the peptide administered and control rabbits were stained with Oil Red O. Aorta from the peptide administered rabbits had 40-50% less lesion than the control rabbit aorta.
Therefore, possible reasons for the clearance of atherogenic lipoproteins can be in addition to rapid hepatic clearance similar to the properties of apo E, modulation of HDL properties or synthesis of macrophage apo E. If this is true, this peptide may also exert its effect on endothelial function. Indeed it was observed that there is a recovery of endothelial function as studied by the acetylcholine dose-dependent aortal relaxation (FIG. 13). […] It is possible that lipid lowering can cause reduction of oxidative stress and thus inhibition of endothelial activation.
Results observed in HepG2 cells indicate that peptide associates with apo B-containing plasma lipoproteins to incorporate positive charges on the lipoprotein surface. This enables the apo B-containing lipoproteins to interact with heparan sulphate proteoglycans (HSPGs). The effect of these peptides on the mode of reduction of plasma cholesterol levels in mouse models and the two rabbit models can be determined. In NZW rabbits fed a 1% cholesterol-diet, a reduction of plasma cholesterol is observed which lasts for 14 days after the peptide administration; whereas in the WHHL rabbits, the reduction is initially rapid and returns to original levels within 3 days. Since the WHHL rabbit model is LDL-receptor defective, the differential effects of the peptide in two models can be due to differences in the receptor-mediated clearance pathways of atherogenic lipoproteins. […]

[3] = system: HepG2 cells; test: Apo A-I / prebeta-HDL secretion by HepG2 cells; format: cell-based
[4] = experiments where atherogenic lipoprotein reduction was observed; CLiP; cited from earlier work
[5] = system: MEF 1 cells with induced LDL receptors; conditions: cited from earlier work
[6] = system: apo E null mice; test: Plasma cholesterol in apo E null mice after i.v. dual-domain peptides; format: in vivo; conditions: iv, n=4
Description: The peptides represented are Ac-hE-18A-NH2, Ac-hE4F-NH2, and Ac-hE-Sc2F-NH2. Peptides Ac-hE-18A-NH2, Ac-hE-4F-NH2 and Ac-hE-Sc18A were administered (i.v.) to apo E null mice (n=4) and plasma cholesterol values were determined at before administration (0 min), 5 min and 2 h after administration.
As described above, peptides Ac-hE-18A-NH2, Ac-hE-4F-NH2 and Ac-hE-Sc18A were administered (iv) to apo E null mice (n=4) and plasma cholesterol values were determined at before administration (0 min), 5 min and 2 h after administration.

[7] = system: plasma LDL from WHHL rabbits; test: Association of 125I-labelled peptide with WHHL rabbit plasma lipoproteins (CLiP); format: binding
Description: (§1) 100 μg of the ^125I-labelled peptide was mixed with 1 ml of plasma from 6 month old WHHL rabbit. After incubation for 1 h at room temperature, the plasma was subjected to CLiP analysis (66). Radioactivity in different fractions was determined and plotted on the CLiP profile. […] This improvement was associated with a reduction in 2 markers of oxidative stress.

[8] = system: atherogenic apo B-containing lipoproteins in human plasma; conditions: cited from earlier work
[9] = system: WHHL rabbits; test: Single bolus i.v. administration in WHHL rabbits; format: in vivo, rabbit
Description: as §1
Results observed in HepG2 cells indicate that peptide associates with apo B-containing plasma lipoproteins to incorporate positive charges on the lipoprotein surface. This enables the apo B-containing lipoproteins to interact with heparan sulphate proteoglycans (HSPGs). The effect of these peptides on the mode of reduction of plasma cholesterol levels in mouse models and the two rabbit models can be determined. In NZW rabbits fed a 1% cholesterol-diet, a reduction of plasma cholesterol is observed which lasts for 14 days after the peptide administration; whereas in the WHHL rabbits, the reduction is initially rapid and returns to original levels within 3 days. Since the WHHL rabbit model is LDL-receptor defective, the differential effects of the peptide in two models can be due to differences in the receptor-mediated clearance pathways of atherogenic lipoproteins. HepG2 cells, primary hepatocytes from apo E null and LDL-R null mice, and primary rabbit hepatocytes can be used to determine the molecular factors in the receptor-mediated clearance pathways of atherogenic lipoproteins.

[10] = single bolus 15 mg/kg intravenous

Ac-LRKLRKRLLRDWLKAFYDKVAEKLKEAF-NH2 [Ac-hE-18A-NH2]
time for which lower total cholesterol levels were observed vs control ([1]; 100 ug i.v. one time, continued atherogenic diet): ≥ 8 days
initial decrease of plasma cholesterol ([1]; 100 ug i.v., n=9): > 65%
less aorta lesion than control (Oil Red O) ([2]; 3 mg/kg i.v. twice, sacrificed 51 days after initiation of diet): 40-50%
amounts of VLDL and LDL in plasma ([2]; 3 mg/kg i.v., 14 days after first administration, n=3): Significantly decreased
lesion by en face analysis after 50 days ([2]; 3 mg/kg, saline-treated control ~50% lesion coverage): little to no lesion
decrease in plasma cholesterol ([2]; 5 mg/kg iv two times, n=4 (FIG. 11 legend)): 50%
plasma cholesterol values at end of 14 days ([2]; 5 mg/kg iv two times, n=4, control in the range of 2000 mg/dl): ~1000 mg/dL
plasma cholesterol less than in control rabbits at end of experiment ([2]; 7.5 mg/kg i.v. in two intervals one week apart): 50%
duration of reduction of plasma cholesterol after peptide administration ([2]; NZW rabbits fed 1% cholesterol diet): 14 days
endothelial function, acetylcholine dose-dependent aortal relaxation ([2]; aortal rings after 51 days of 1% cholesterol diet): vascular response almost similar to aortas obtained from rabbits on a normal diet
time for which total plasma cholesterol levels were significantly decreased ([2]; single intravenous administration 3 mg/kg): 15 days
prebeta-HDL production ([3]; equal amount on weight basis (50 ug/ml), first overnight incubation): produced preβ-HDL
prebeta-HDL amount after second and third overnight incubation ([3]; fresh cell medium without peptide): produced significant amounts
effect on HDL levels [4]: did not reduce HDL levels
LDL internalization enhanced [5]: five
reduction in plasma cholesterol levels at 2 h time point [6]: large reduction
association with WHHL plasma lipoproteins ([7]; 100 ug 125I-labelled peptide in 1 ml plasma, 1 h room temperature): associates with LDL
LOOH content of peptide-treated WHHL plasma LDL ([7]; compared to plasma from untreated rabbits): reduced amounts of LOOH
association with atherogenic apo B-containing lipoproteins [8]: associates with atherogenic apo B-containing lipoproteins
time for plasma cholesterol to return to original levels ([9]; WHHL rabbits): ≤ 3 days
arterial endothelial function [9, 10]: significantly improved
formation of superoxide anion in arteries [9, 10]: significantly reduced
increase in HDL paraoxonase activity [9, 10]: 5 fold
plasma lipid hydroperoxide content [9, 10]: reduced significantly
plasma cholesterol levels at 18 h ([9]; single bolus 15 mg/kg intravenous, reduced from 562±29 mg/dl): 287 ± 22 mg/dL
